According to ChEMBL document CHEMBL1201862, “PubChem BioAssay data set” (2004):
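In this assay, cells in 96-well plates receive the compound at five concentrations for 48 hours. Endpoints are linearly interpolated between the surrounding concentrations. At the GI50, growth is halved.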 Active and inactive are the calls of the source. Rule as the data show it: active = GI50 up to about 1.1 µM and inactive = higher.

Key:
Assay in all cases: NCI anticancer screen, dose series, 48 h
HT-29 = test system: HT-29
NCI-H226 = test system: NCI-H226
OVCAR-8 = test system: OVCAR-8
KM-20L2 = test system: KM-20L2
HOP-18 = test system: HOP-18
SK-MEL-5 = test system: SK-MEL-5
A498 = test system: A498
CCRF-CEM = test system: CCRF-CEM
HL-60 = test system: HL-60
IGROV-1 = test system: IGROV-1
K562 = test system: K562
UACC-62 = test system: UACC-62
UACC-257 = test system: UACC-257
UO-31 = test system: UO-31
SF-295 = test system: SF-295
DMS-114 = test system: DMS-114
OVCAR-3 = test system: OVCAR-3
OVCAR-5 = test system: OVCAR-5
M14 = test system: M14
RXF 393 = test system: RXF 393
XF498 = test system: XF498
LXFL 529 = test system: LXFL 529
KM12 = test system: KM12
Malme-3M = test system: Malme-3M
HOP-62 = test system: HOP-62
EKVX = test system: EKVX
TK-10 = test system: TK-10
NCI-H460 = test system: NCI-H460
DMS-273 = test system: DMS-273
SN12C = test system: SN12C
SW-620 = test system: SW-620
MOLT-4 = test system: MOLT-4
SNB-75 = test system: SNB-75
M19-MEL = test system: M19-MEL
HOP-92 = test system: HOP-92
SF-268 = test system: SF-268
SK-MEL-2 = test system: SK-MEL-2
SF-539 = test system: SF-539
COLO 205 = test system: COLO 205
A549 = test system: A549
LOX IMVI = test system: LOX IMVI
ACHN = test system: ACHN
NCI-H522 = test system: NCI-H522
SNB-19 = test system: SNB-19
SNB-78 = test system: SNB-78
CAKI-1 = test system: CAKI-1
HCC 2998 = test system: HCC 2998
786-0 = test system: 786-0
SK-MEL-28 = test system: SK-MEL-28
SR = test system: SR
HCT-15 = test system: HCT-15
RPMI-8226 = test system: RPMI-8226
U-251 = test system: U-251
HCT-116 = test system: HCT-116
RXF 631 = test system: RXF 631
NCI-H23 = test system: NCI-H23
SK-OV-3 = test system: SK-OV-3
DLD-1 = test system: DLD-1
OVCAR-4 = test system: OVCAR-4

Compound: O=C(CCc1cc(-c2ccccc2)[nH]c(=S)n1)Nc1ccccc1[N+](=O)[O-]
- GI50 (HT-29): > 100 µM (inactive)
- GI50 (NCI-H226): > 100 µM (inactive)
- GI50 (OVCAR-8): > 100 µM (inactive)
- GI50 (KM-20L2): > 100 µM (inactive)
- GI50 (HOP-18): > 100 µM (inactive)
- GI50 (SK-MEL-5): > 100 µM (inactive)
- GI50 (A498): > 100 µM (inactive)
- GI50 (CCRF-CEM): > 100 µM (inactive)
- GI50 (HL-60): > 100 µM (inactive)
- GI50 (IGROV-1): > 100 µM (inactive)
- GI50 (K562): > 100 µM (inactive)
- GI50 (UACC-62): > 100 µM (inactive)
- GI50 (UACC-257): > 100 µM (inactive)
- GI50 (UO-31): > 100 µM (inactive)
- GI50 (SF-295): > 100 µM (inactive)
- GI50 (DMS-114): > 100 µM (inactive)
- GI50 (OVCAR-3): > 100 µM (inactive)
- GI50 (OVCAR-5): > 100 µM (inactive)
- GI50 (M14): > 100 µM (inactive)
- GI50 (RXF 393): > 100 µM (inactive)
- GI50 (XF498): 42 µM (inactive)
- GI50 (LXFL 529): > 100 µM (inactive)
- GI50 (KM12): > 100 µM (inactive)
- GI50 (Malme-3M): > 100 µM (inactive)
- GI50 (HOP-62): > 100 µM (inactive)
- GI50 (EKVX): > 100 µM (inactive)
- GI50 (TK-10): > 100 µM (inactive)
- GI50 (NCI-H460): > 100 µM (inactive)
- GI50 (DMS-273): > 100 µM (inactive)
- GI50 (SN12C): > 100 µM (inactive)
- GI50 (SW-620): > 100 µM (inactive)
- GI50 (MOLT-4): > 100 µM (inactive)
- GI50 (SNB-75): > 100 µM (inactive)
- GI50 (M19-MEL): > 100 µM (inactive)
- GI50 (HOP-92): > 100 µM (inactive)
- GI50 (SF-268): > 100 µM (inactive)
- GI50 (SK-MEL-2): > 100 µM (inactive)
- GI50 (SF-539): > 100 µM (inactive)
- GI50 (COLO 205): > 100 µM (inactive)
- GI50 (A549): > 100 µM (inactive)
- GI50 (LOX IMVI): > 100 µM (inactive)
- GI50 (ACHN): > 100 µM (inactive)
- GI50 (NCI-H522): > 100 µM (inactive)
- GI50 (SNB-19): > 100 µM (inactive)
- GI50 (SNB-78): > 100 µM (inactive)
- GI50 (CAKI-1): > 100 µM (inactive)
- GI50 (HCC 2998): > 100 µM (inactive)
- GI50 (786-0): > 100 µM (inactive)
- GI50 (SK-MEL-28): > 100 µM (inactive)
- GI50 (SR): > 100 µM (inactive)
- GI50 (HCT-15): > 100 µM
- GI50 (RPMI-8226): > 100 µM (inactive)
- GI50 (U-251): > 100 µM (inactive)
- GI50 (HCT-116): > 100 µM (inactive)
- GI50 (RXF 631): > 100 µM (inactive)
- GI50 (NCI-H23): > 100 µM (inactive)
- GI50 (SK-OV-3): > 100 µM (inactive)

Compound: COc1c(Sc2ccccc2)cc(Sc2ccccc2)c2cccnc12
- GI50 (HT-29): 24.9 µM (inactive)
- GI50 (OVCAR-8): 27.4 µM (inactive)
- GI50 (KM-20L2): 21.2 µM (inactive)
- GI50 (HOP-18): 0.0263 µM (active)
- GI50 (SK-MEL-5): 16.4 µM (inactive)
- GI50 (DLD-1): 27.9 µM (inactive)
- GI50 (A498): 29.1 µM (inactive)
- GI50 (CCRF-CEM): 20 µM (inactive)
- GI50 (IGROV-1): 46.1 µM (inactive)
- GI50 (K562): 23.7 µM (inactive)
- GI50 (UACC-62): 18.2 µM (inactive)
- GI50 (UACC-257): 18.2 µM (inactive)
- GI50 (UO-31): 19.1 µM (inactive)
- GI50 (SF-295): 17.3 µM (inactive)
- GI50 (DMS-114): 24.1 µM (inactive)
- GI50 (OVCAR-3): 20.9 µM (inactive)
- GI50 (OVCAR-5): 40.2 µM (inactive)
- GI50 (M14): 27 µM (inactive)
- GI50 (RXF 393): 11.8 µM (inactive)
- GI50 (XF498): 17.7 µM (inactive)
- GI50 (LXFL 529): 30.8 µM (inactive)
- GI50 (KM12): 24.4 µM (inactive)
- GI50 (Malme-3M): 15.1 µM (inactive)
- GI50 (HOP-62): 34.9 µM (inactive)
- GI50 (EKVX): 28.2 µM (inactive)
- GI50 (TK-10): 23.2 µM (inactive)
- GI50 (NCI-H460): 20.2 µM (inactive)
- GI50 (DMS-273): 20 µM (inactive)
- GI50 (SN12C): 28.2 µM (inactive)
- GI50 (SW-620): 39.2 µM (inactive)
- GI50 (MOLT-4): 19.5 µM (inactive)
- GI50 (SNB-75): 19.5 µM (inactive)
- GI50 (M19-MEL): 28.9 µM (inactive)
- GI50 (SF-268): 37.3 µM (inactive)
- GI50 (SK-MEL-2): 17.6 µM (inactive)
- GI50 (SF-539): 26.2 µM (inactive)
- GI50 (COLO 205): 19.6 µM (inactive)
- GI50 (A549): 24 µM (inactive)
- GI50 (LOX IMVI): 17.6 µM (inactive)
- GI50 (ACHN): 26.8 µM (inactive)
- GI50 (SNB-19): 31.8 µM (inactive)
- GI50 (SNB-78): 34 µM (inactive)
- GI50 (CAKI-1): 12.9 µM (inactive)
- GI50 (HCC 2998): 41.9 µM (inactive)
- GI50 (786-0): 20.2 µM (inactive)
- GI50 (SK-MEL-28): 35.9 µM (inactive)
- GI50 (HCT-15): 15.4 µM
- GI50 (RPMI-8226): 17.6 µM (inactive)
- GI50 (U-251): 29.2 µM (inactive)
- GI50 (HCT-116): 28.9 µM (inactive)
- GI50 (RXF 631): 27.9 µM (inactive)
- GI50 (OVCAR-4): 16.2 µM (inactive)
- GI50 (NCI-H23): 19.5 µM (inactive)
- GI50 (SK-OV-3): > 100 µM (inactive)

Compound: CC(c1ccccc1)C(O)S(=O)(=O)O (stereo not drawn)
- GI50 (HT-29): > 100 µM (inactive)
- GI50 (NCI-H226): > 100 µM (inactive)
- GI50 (OVCAR-8): > 100 µM (inactive)
- GI50 (KM-20L2): > 100 µM (inactive)
- GI50 (HOP-18): > 100 µM (inactive)
- GI50 (A498): > 100 µM (inactive)
- GI50 (CCRF-CEM): > 100 µM (inactive)
- GI50 (IGROV-1): > 100 µM (inactive)
- GI50 (K562): > 10 µM (inactive)
- GI50 (UACC-62): > 100 µM (inactive)
- GI50 (UACC-257): > 100 µM (inactive)
- GI50 (UO-31): > 100 µM (inactive)
- GI50 (SF-295): > 100 µM (inactive)
- GI50 (DMS-114): 98.9 µM (inactive)
- GI50 (OVCAR-3): > 100 µM (inactive)
- GI50 (OVCAR-5): > 100 µM (inactive)
- GI50 (M14): > 100 µM (inactive)
- GI50 (RXF 393): > 100 µM (inactive)
- GI50 (XF498): > 100 µM (inactive)
- GI50 (LXFL 529): > 100 µM (inactive)
- GI50 (KM12): > 100 µM (inactive)
- GI50 (Malme-3M): > 100 µM (inactive)
- GI50 (EKVX): > 100 µM (inactive)
- GI50 (TK-10): > 100 µM (inactive)
- GI50 (NCI-H460): 88.3 µM (inactive)
- GI50 (DMS-273): > 100 µM (inactive)
- GI50 (SN12C): > 100 µM (inactive)
- GI50 (SW-620): > 100 µM (inactive)
- GI50 (MOLT-4): > 100 µM (inactive)
- GI50 (SNB-75): 43.7 µM (inactive)
- GI50 (M19-MEL): > 100 µM (inactive)
- GI50 (HOP-92): > 100 µM (inactive)
- GI50 (SF-268): > 100 µM (inactive)
- GI50 (SK-MEL-2): > 100 µM (inactive)
- GI50 (SF-539): > 100 µM (inactive)
- GI50 (COLO 205): > 100 µM (inactive)
- GI50 (A549): > 100 µM (inactive)
- GI50 (LOX IMVI): 36.8 µM (inactive)
- GI50 (ACHN): > 100 µM (inactive)
- GI50 (NCI-H522): > 100 µM (inactive)
- GI50 (SNB-19): > 100 µM (inactive)
- GI50 (SNB-78): > 100 µM (inactive)
- GI50 (786-0): > 100 µM (inactive)
- GI50 (SK-MEL-28): > 100 µM (inactive)
- GI50 (HCT-15): > 100 µM
- GI50 (RPMI-8226): > 100 µM (inactive)
- GI50 (U-251): > 100 µM (inactive)
- GI50 (HCT-116): > 100 µM (inactive)
- GI50 (RXF 631): > 100 µM (inactive)
- GI50 (OVCAR-4): > 100 µM (inactive)
- GI50 (NCI-H23): > 100 µM (inactive)
- GI50 (SK-OV-3): > 100 µM (inactive)
